Where a name gives a salt, the structure may show the parent alone.
Assays:
[1] = system: PHF epitope levels in frontal (Brodman Area 10) and temporal (Brodman Area 38) brain tissue; test: ALZ-EIA of PHF (ADAP) levels in post-mortem brain tissue of patients chronically treated with chlorpromazine; type: in vivo, human; conditions: chronic treatment; frontal and temporal tissue at autopsy; vs normal controls and AD (FIGS. 4A, 4B)
Protocol: FIG. 4A is a chart showing relative ADAP concentrations in Brodman Area 10 in Alzheimer's Disease patients, normal controls and patients treated with chlorpromazine (Rx).
FIG. 4B is a chart showing relative ADAP concentrations in Brodman Area 38 in Alzheimer's Disease patients, normal controls and patients treated with chlorpromazine (Rx).
Frontal and cortical brain tissue specimens obtained at autopsy from patients chronically treated with chlorpromazine were analyzed using the ALZ-EIA method previously described (Ghanbari, H A, et al, JAMA, 263, 2907, 1990). The results are shown in FIGS. 4A and 4B frontal (Broadman area 10) and temporal (Broadman area 38) regions, respectively. The brain tissue (post-mortem) from approximately the same number of (age matched) normal controls and Alzheimer's Disease patients were also analyzed and are presented in these figures as negative and positive controls (for normal and AD, respectively).

[2] = system: PHF epitopes in MSN1a cells (PHF-1 immunoreactivity); test: PHF-1 immunoreactivity (western blot) in okadaic acid treated MSN1a cells; type: cell-based, human
Protocol: FIG. 3 is a western blot showing PHF-1 immunoreactivity in lysates from control and chlorpromazine treated MSN cells treated with okadaic acid.
These compounds are effective at micromolar concentrations, with increased potency being evident when cells are treated prior to the addition of okadaic acid. The effective concentrations appear to be in the range at which these drugs are present in the brain following chronic treatment of psychiatric patients (Svendsen, C N, Psychopharmacology, 90, 316-321, 1986).
To determine the effect of chlorpromazine on the paired helical filament epitopes associated with AD, MSN1a cells expressing paired helical filament epitopes were incubated with […] chlorpromazine (CPZ) or a 0.2% DMSO vehicle control for 2 hours at 37° C. The cells were isolated by centrifugation, boiled for 10 minutes and […] protein from the resulting heat stable supernatants were loaded per lane on an SDS-PAGE gel. The gel was electrophoretically transferred to nitrocellulose membrane and then immunostained with PHF-1. […] The use of the MSN1a cell culture model for screening of novel compounds for therapeutic activity in AD is, therefore, quite warranted.

[3] = system: TG3 immunoreactivity in OKA treated MSN1a cells; test: inhibition of TG3 immunoreactivity in OKA treated MSN1a cells (ELISA); type: cell-based, human; conditions: for IC50: Homo sapiens, 1 μM OKA, 0-64 μM drug, 2 hrs at 37° C., TG3 antibody
Protocol: Therefore, the therapeutic activity of the compounds of the invention was assessed by the ability of these agents to affect the production of abnormally phosphorylated epitopes pertinent to the production of PHFs of AD, utilizing a human neuroblastoma cell line (MSN1a) in the presence of the protein phosphatsse inhibitor, okadaic acid (OKA).
This assay can thus be used to determine whether a drug is capable of preventing or intervening in AD by attenuating the production of abnormally phosphorylated paired helical filament epitopes associated with AD. To determine whether a drug is capable of preventing or intervening in AD activity, the MSN1a cells containing tau and associated proteins are treated with OKA capable of greatly increasing immnunoreactivity of the MSN1a cells with AD specific monoclonal antibodies. Then, either prior to or concomitantly with OKA treatment, a compound of the present invention is added to the culture. If the compound prevents the induction of the AD epitopes in the MSN1a cells treated with OKA, then it is said to have anti-AD activity. If the AD-specific antibodies are highly reactive with the neuroblastoma cells following OKA treatment in the presence of compound, then the compound is said to be ineffectual against AD.
The MSN1a human neuroblastoma line was subcloned from a population of MSN cells obtained from the laboratory of Dr. Peter Davies (Albert Einstein College of Medicine, New York, N.Y.). Cells were grown and maintained in flasks in RPMI 1640 medium, supplemented with 15% fetal calf serum, 100 U/ml penicillin, 100 U/ml Streptomycin, 0.5 ug/ml fungizone under 7.5% CO2 at 37° C.
Stock solutions of drugs were prepared by dissolving the anhydrous powders to final concentrations of either 10 or 20 mM in 50% aqueous or 100% dimethyl sulfoxide (DMSO), respectively. […]
MSN cells grown in 225 cm^2 flasks are removed from the incubator, their medium decanted and replaced with 50 ml pre-warmed KRH. […] The supernatants are discarded and the cell pellets are resuspended, the cells counted and diluted to a density of 2×10^4 cells/50 ml. […]

[4] = system: PHF-1 and TG3 epitopes in MSN1a cells; test: generation of Alzheimer epitopes (PHF-1 and TG3) in MSN1a cells by okadaic acid; type: cell-based, human
Protocol: Conditions were established which led to hyperphosphorylation of the proteins known to be involved in PHF formation. Using monoclonal antibodies PHF-1 and TG3 generated to human PHF preparations, the effects of a variety of manipulations of the phosphorylation state of these proteins were tested. These tests required that most of the abnormal epitopes recognized by these monoclonal antibodies in the human Alzheimer brain should be generated in the MSN1a cells. […] These epitopes are either absent or present at a very low level in untreated MSN1a cells.
Shown in FIG. 2A are bar graphs (percent of AD) of the ELISA immunoreactivity of brain preparations (AD or normal) to either PHF-1 or TG3. Shown in FIG. 2B are bar graphs (percent of MSN+) of the ELISA immunoreactivity of MSN1a cell preparations (minus or plus okadaic acid) to either PHF-1 or TG3. The MSN1a cell preparations plus vs minus okadaic acid closely parallel the AD vs nomal brain preparations. […] The cell culture system according to the invention in which epitopes characteristic of PHF can be readily generated and subsequently recognized by the specific Alzheimer brain specific antibodies provides an assay suitable for screening compounds for their ability to block the production of these phosphorylated epitopes.

## CN(C)CCCN1c2ccccc2Sc2ccc(Cl)cc21 [Chlorpromazine, chlorpromazine]
[1]
  PHF epitope levels in brain of chlorpromazine treated patients: low PHF epitope levels similar to normal controls
[2]; 100 mM chlorpromazine, 2 hours at 37° C., PHF-1 immunostain
  production of paired helical filament epitopes by the MSN1a cells: greatly decreased the production of paired helical filament epitopes
[2]; MSN1a cells treated with okadaic acid, Alzheimer's Disease specific antibodies (cf. FIG. 3)
  inhibition of the expression of PHF epitopes: markedly inhibit the expression of PHF epitopes
[3]; MSN1a cell culture model, TG3
  inhibition of the production of aberrantly phosphorylated epitopes: effective in inhibiting the production of these aberrant phosphorylated epitopes

## CSc1ccc(C(=O)CCN2CCN(Cc3ccccc3)CC2)cc1 [Example 14, 1-(p-Methylthiophenyl)-3-(4'-benzyl-1'-piperazinyl)-1-propanone dihydrochloride]
[3]
  IC50: 5.8 µM

## O=C(CCN1CCN(C(=O)c2cccc(F)c2F)CC1)c1ccc([N+](=O)[O-])cc1 [Example 63, 1-(p-Nitrophenyl)-3-[4'-(2",3"-difluorobenzoyl)-1'-piperazinyl]-1-propanonedlhydrochlorde]
[3]
  IC50: 7.3 µM

## C=C1[C@@H](O)[C@@H]2O[C@]3(CC[C@H](/C=C/[C@@H](C)[C@@H]4CC(C)=C[C@@]5(O[C@H](C[C@@](C)(O)C(=O)O)CC[C@H]5O)O4)O3)CC[C@H]2O[C@@H]1[C@@H](O)C[C@H](C)[C@H]1O[C@@]2(CCCCO2)CC[C@H]1C [okadaic acid]
[4]
  generation of the epitopes associated with Alzheimer brain specific monoclonal antibodies: found to generate the epitopes

Source: patent US6306857A, “Methods for treating or preventing alzheimer's disease using substituted 1-aryl-3-piperazin-1'-yl propanones” (Molecular Geriatrics Corporation, priority 1999, dated 2001)
